From the supplement of paper PMC8882468

Legend:
Test in all cases: CTG-3D luminescence at 96 h relative to day-0 seeding control (ratio to day 0); higher = more growth / less cytotoxicity; PDxO 3D drug screen (set 2), 96 h, CTG-3D normalised to day-0 seeding control.
HCI-001 = tested on: HCI-001 (organoid from a triple-negative breast cancer xenograft)
HCI-002 = tested on: HCI-002 (organoid from a triple-negative breast cancer xenograft)
HCI-011.E2 = tested on: HCI-011.E2 (organoid from an ER-positive breast cancer xenograft)
HCI-015 = tested on: HCI-015 (organoid from a triple-negative breast cancer xenograft)
HCI-024 = tested on: HCI-024 (organoid from a breast cancer xenograft)
HCI-025 = tested on: HCI-025 (organoid from a breast cancer xenograft)

CC(=O)O[C@@]12CO[C@@H]1C[C@H](O)[C@@]1(C)C(=O)[C@H](O)C3=C(C)[C@@H](OC(=O)[C@H](O)[C@@H](NC(=O)OC(C)(C)C)c4ccccc4)C[C@@](O)([C@@H](OC(=O)c4ccccc4)[C@H]21)C3(C)C [docetaxel]
CTG-3D luminescence at 96 h
Conditions	12.5 pM	0.00025 µM	0.005 µM	0.1 µM	1 µM	10 µM	100 µM	625 fM
HCI-001, days in culture: 365	1.99	1.78	1.68	1.79	1.49	1.18	1.1	1.34
HCI-001, days in culture: 397	1.11	1.7	1.28	1.67	1.72	1.72	0.311	0.889
HCI-001, days in culture: 401	1	1.57	0.829	1.35	1.02	1.19	0.514	1.16
HCI-002, days in culture: 127	0.447	0.957	0.452	0.428	0.356	0.422	0.298	0.543
HCI-002, days in culture: 155	1.9	0.578	0.357	0.536	0.394	0.397	0.378	2.27
HCI-002, days in culture: 168	3.45	3.13	0.43	0.281	0.324	0.319	0.115	4.39
HCI-011.E2, days in culture: 74	2.53	2.12	1.78	1.48	1.09	0.702	0.133	2.19
HCI-015, days in culture: 333	1.1	0.869	0.428	0.469	0.526	0.304	0.0462	0.76
HCI-015, days in culture: 355	1.2	0.928	0.736	0.737	0.975	0.684	0.105	0.757
HCI-015, days in culture: 369	1.06	0.83	0.967	0.721	0.553	0.702	0.176	1.69
HCI-024, days in culture: 202	0.822	0.868	0.82	1.17	0.844	1.08	0.0987	0.654
HCI-024, days in culture: 231	0.86	0.987	0.75	0.873	1.08	1.06	0.0745	1.06
HCI-024, days in culture: 254	0.926	1.02	1.14	1.11	1.87	0.726	0.241	1.59
HCI-025, days in culture: 175	0.586	0.61	0.547	0.494	0.674	0.771	0.387	0.704
HCI-025, days in culture: 189	0.971	0.89	0.694	1.01	0.76	0.759	0.286	1.74
HCI-025, days in culture: 212	2.49	1.38	0.974	0.822	0.332	0.385	0.187	0.772
HCI-025, days in culture: 224	2.29	2.24	0.853	0.501	0.639	0.685	0.065	1.64

HCI-011.E2
Conditions	CTG-3D luminescence at 96 h
12.5 pM	1.19
0.00025 µM	1.26
0.005 µM	1.02
0.1 µM	1.32
1 µM	1.05
10 µM	0.933
100 µM	0.118
625 fM	1.35

COc1cccc2c1C(=O)c1c(O)c3c(c(O)c1C2=O)C[C@@](O)(C(=O)CO)C[C@@H]3O[C@H]1C[C@H](N)[C@@H](O)[C@H](C)O1 [epirubicin]
CTG-3D luminescence at 96 h
Conditions	12.5 pM	0.00025 µM	0.005 µM	0.1 µM	1 µM	10 µM	100 µM	625 fM
HCI-001, days in culture: 365	2.72	2.24	2.31	1.83	0.374	0.226	-0.00151	2.09
HCI-001, days in culture: 397	1.49	2.3	1.7	1.3	0.405	0.197	-0.00311	1.83
HCI-001, days in culture: 401	1.41	1.96	1.6	1.06	0.216	0.3	-0.00404	1.55
HCI-002, days in culture: 127	2.39	2.93	2.65	2.23	0.362	0.034	-0.0164	3.16
HCI-002, days in culture: 155	5.42	5.17	4.75	2.9	0.251	0.0733	-0.011	4.45
HCI-002, days in culture: 168	3.2	3.41	3.79	1.24	0.0925	0.0935	-0.00758	3.54
HCI-011.E2, days in culture: 74	2.38	2.27	2.26	2.8	0.677	0.0499	-0.0143	2.23
HCI-015, days in culture: 333	2.58	1.36	1.49	0.405	0.191	0.0651	0.000859	1.94
HCI-015, days in culture: 355	2.99	2	0.533	0.761	0.192	0.0805	0.00144	1.85
HCI-015, days in culture: 369	2	1.58	2.14	0.514	0.143	0.117	0.000973	2.07
HCI-024, days in culture: 202	1.44	1.41	0.402	0.943	0.189	0.201	0.0124	0.718
HCI-024, days in culture: 231	1.26	1.41	1.2	0.91	0.331	0.141	0.0266	1.79
HCI-024, days in culture: 254	1.76	2	0.967	0.838	0.196	0.165	0.0227	1.93
HCI-025, days in culture: 175	1.67	1.16	0.961	0.846	0.14	0.0198	-0.00458	1.31
HCI-025, days in culture: 189	2.65	2.38	1.58	1.14	0.108	0.00904	-0.0017	2.54
HCI-025, days in culture: 212	1.54	2.81	3.5	1.27	0.125	0.0162	-0.000834	1.07
HCI-025, days in culture: 224	1.88	2.11	1.45	0.576	0.0783	0.0108	-0.00319	1.79

HCI-011.E2
Conditions	CTG-3D luminescence at 96 h
12.5 pM	1.49
0.00025 µM	1.68
0.005 µM	1.53
0.1 µM	1.6
1 µM	0.861
10 µM	0.0857
100 µM	-0.000843
625 fM	1.72
